Results on 13 compounds are retold here after patent US12559492B2, “BRAF degraders” (C4 Therapeutics, Inc., priority 2020, dated 2026).

The assay deals with BRAF^V600E protein (Homo sapiens, UniProt P15056, V600E). The assay is described as follows: HiBiT cellular BRAF V600E degradation assay. Format: cell-based. The following applies: 24 h incubation; for DC50: A375.10 cells (HiBiT tag knocked in at N-terminal of BRAF V600E), concentration at which 50% of total cellular BRAF V600E is degraded; for Emax / HiBit 24 h Emax: A375.10 cells, Emax = amount of residual protein remaining in the cell after compound treatment; for Emax: read-out: HiBit 24 h Emax. The text has this: DMEM no-phenol red medium supplemented with L-glutamine was purchased from (Corning). Fetal bovine serum (FBS) was purchased from Gibco (Grand Island, NY, USA). Nano-Glo® HiBiT Lytic Assay Buffer & Reagents were purchased from Promega (Madison, WI, USA). […] Cell culture flasks and 384-well black flat-bottom polystyrene TC-treated microplates were acquired from Corning (Corning, NY, USA).
BRAF^V600E protein, sequence (P15056 whole entry V600E): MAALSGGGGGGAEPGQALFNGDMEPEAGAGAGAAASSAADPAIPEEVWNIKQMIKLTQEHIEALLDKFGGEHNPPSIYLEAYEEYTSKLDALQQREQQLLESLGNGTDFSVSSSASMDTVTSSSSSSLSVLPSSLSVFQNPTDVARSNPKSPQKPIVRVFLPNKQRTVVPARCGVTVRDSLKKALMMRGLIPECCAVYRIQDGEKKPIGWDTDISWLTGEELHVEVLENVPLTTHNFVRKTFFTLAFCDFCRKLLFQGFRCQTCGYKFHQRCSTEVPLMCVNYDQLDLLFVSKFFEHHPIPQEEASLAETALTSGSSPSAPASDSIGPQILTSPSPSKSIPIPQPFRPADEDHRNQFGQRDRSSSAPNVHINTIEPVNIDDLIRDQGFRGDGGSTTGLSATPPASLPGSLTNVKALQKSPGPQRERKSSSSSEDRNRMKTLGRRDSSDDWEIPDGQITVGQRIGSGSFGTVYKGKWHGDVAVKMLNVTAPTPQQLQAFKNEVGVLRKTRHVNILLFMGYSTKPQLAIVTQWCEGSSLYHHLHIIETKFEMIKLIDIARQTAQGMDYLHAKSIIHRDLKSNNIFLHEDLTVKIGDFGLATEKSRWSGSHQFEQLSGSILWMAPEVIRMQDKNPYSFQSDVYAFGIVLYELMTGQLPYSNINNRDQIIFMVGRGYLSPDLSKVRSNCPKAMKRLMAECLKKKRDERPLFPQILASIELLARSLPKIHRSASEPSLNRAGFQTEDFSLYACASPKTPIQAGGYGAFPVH
HiBiT Cellular BRAFv^600E Degradation Assay
Prior to the assay, the A375.10 cell line is maintained in DMEM no-phenol red medium supplemented with 10% fetal bovine serum (FBS). […] Briefly, test compounds were added to the 384-well plate from a top concentration of 10 μM with 11 half log dilutions of compound, plated in duplicate. Then, 30 uL of a suspension of A375.10 cell lines was dispensed into columns 1-24 of the 384-well plates at a cell density of 7500 cells per well. The plates were kept at 37° C. with 5% CO2 for the duration of the assay (6 or 24 hr). After the desired incubation time with compound, 30 uL of Nano-Glo® HiBiT Lytic Buffer containing LgBiT protein (diluted 1:100) and luminescence substrate (diluted 1:50) were added to the cells in columns 1-23 of the assay plate. The plate was the incubated for 30 min on the bench at room temperature. Finally, HiBiT luminescence signal was acquired on EnVision™ Multilabel Reader (PerkinElmer, Santa Clara, CA, USA).
Quantification of luminescence responses measured in the presence of compound were normalized to a high signal/no degradation control (untreated cells+lytic detection reagent) and a low signal/full degradation control (untreated cells, no lytic detection reagent). Data were analyzed with a 4-parameter logistic fit to generate sigmoidal dose-response curves. […] The Emax, or maximum effect of each compound, represents the amount of residual protein remaining in the cell following compound treatment.
On the technique in general: The HiBiT peptide binds its large partner to form an active luciferase.

The DC50 is the concentration giving 50% degradation. For orientation: Emax means the maximal effect, on the per cent scale that the assay sets.

SMILES strings stand for the structures.

As to `CC(C)S(=O)(=O)Nc1ccc(F)c(C(=O)c2c[nH]c3ncc(-c4cnc(N5CCN(C(=O)CN6CCC(c7ccc(C8CCC(=O)NC8=O)cc7)CC6)CC5)nc4)cc23)c1F` (centres unmarked) [Example 8, N-[3-[5-[2-[4-[2-[4-[4-(2,6-dioxo-3-piperidyl)phenyl]-1-piperidyl]acetyl]piperazin-1-yl]pyrimidin-5-yl]-1H-pyrrolo[2,3-b]pyridine-3-carbonyl]-2,4-difluoro-phenyl]propane-2-sulfonamide], the DC50 was determined as 4.67 nM and the Emax turned out to be 2.37%.

Take `CC(C)S(=O)(=O)Nc1ccc(F)c(C(=O)c2c[nH]c3ncc(-c4cnc(N5CCN(C(=O)CN6CCC(c7ccc(C8CCC(=O)NC8=O)cc7F)CC6)CC5)nc4)cc23)c1F` (centres unmarked) [Example 9, N-[3-[5-[2-[4-[2-[4-[4-(2,6-dioxo-3-piperidyl)-2-fluoro-phenyl]-1-piperidyl]acetyl]piperazin-1-yl]pyrimidin-5-yl]-1H-pyrrolo[2,3-b]pyridine-3-carbonyl]-2,4-difluoro-phenyl]propane-2-sulfonamide]: the 50% degradation concentration (DC50) is 10.7 nM and the maximal response (Emax) amounted to 3.41%.

In the case of `CC(C)S(=O)(=O)Nc1ccc(F)c(C(=O)c2c[nH]c3ncc(-c4cnc(N5CCN(C(=O)CN6CCC(c7ccc8c(N9CCC(=O)NC9=O)nn(C)c8c7)CC6)CC5)nc4)cc23)c1F` [Example 10, N-[3-[5-[2-[4-[2-[4-[3-(2,4-dioxohexahydropyrimidin-1-yl)-1-methyl-indazol-6-yl]-1-piperidyl]acetyl]piperazin-1-yl]pyrimidin-5-yl]-1H-pyrrolo[2,3-b]pyridine-3-carbonyl]-2,4-difluoro-phenyl]propane-2-sulfonamide], it took 4.45 nM to reach half-maximal degradation (DC50) and the maximal response (Emax) was determined as 8.46%.

Turning to `CC(C)S(=O)(=O)Nc1ccc(F)c(C(=O)c2c[nH]c3ncc(-c4ccc(N5CCN(C(=O)CN6CCC(c7ccc(NC8CCC(=O)NC8=O)cc7)CC6)CC5)nc4)cc23)c1F` (centres unmarked) [Example 11, N-[3-[5-[6-[4-[2-[4-[4-[(2,6-dioxo-3-piperidyl)amino]phenyl]-1-piperidyl]acetyl]piperazin-1-yl]-3-pyridyl]-1H-pyrrolo[2,3-b]pyridine-3-carbonyl]-2,4-difluoro-phenyl]propane-2-sulfonamide], it took 5.08 nM to reach half-maximal degradation (DC50) and the maximal effect (Emax) is 7.97%.

Turning to `CC(C)S(=O)(=O)Nc1ccc(F)c(C(=O)c2c[nH]c3ncc(-c4ccc(N5CCN(C(=O)CN6CCC(c7ccc(NC8CCC(=O)NC8=O)cc7F)CC6)CC5)nc4)cc23)c1F` (centres unmarked) [Example 12, N-[3-[5-[6-[4-[2-[4-[4-[(2,6-dioxo-3-piperidyl)amino]-2-fluoro-phenyl]-1-piperidyl]acetyl]piperazin-1-yl]-3-pyridyl]-1H-pyrrolo[2,3-b]pyridine-3-carbonyl]-2,4-difluoro-phenyl]propane-2-sulfonamide], it took 9.73 nM to reach half-maximal degradation (DC50) and the maximal effect (Emax) was found to be 8.03%.

`CC(C)S(=O)(=O)Nc1ccc(F)c(C(=O)c2c[nH]c3ncc(-c4ccc(N5CCN(C(=O)CN6CCC(c7ccc(OC8CCC(=O)NC8=O)cc7)CC6)CC5)nc4)cc23)c1F` (centres unmarked) [Example 13, N-[3-[5-[6-[4-[2-[4-[4-[(2,6-dioxo-3-piperidyl)oxy]phenyl]-1-piperidyl]acetyl]piperazin-1-yl]-3-pyridyl]-1H-pyrrolo[2,3-b]pyridine-3-carbonyl]-2,4-difluoro-phenyl]propane-2-sulfonamide]: the DC50 was 20.9 nM and the maximal effect (Emax) amounted to 9.56%.

On to `CC(C)S(=O)(=O)Nc1ccc(F)c(C(=O)c2c[nH]c3ncc(-c4ccc(N5CCN(C(=O)CN6CCC(c7ccc(C8CCC(=O)NC8=O)cc7)CC6)CC5)nc4)cc23)c1F` (centres unmarked) [Example 14, N-[3-[5-[6-[4-[2-[4-[4-(2,6-dioxo-3-piperidyl)phenyl]-1-piperidyl]acetyl]piperazin-1-yl]-3-pyridyl]-1H-pyrrolo[2,3-b]pyridine-3-carbonyl]-2,4-difluoro-phenyl]propane-2-sulfonamide], for which the 50% degradation concentration (DC50) worked out at 8.56 nM and the maximal response (Emax) came out at 3.41%.

Turning to `CC(C)S(=O)(=O)Nc1ccc(F)c(C(=O)c2c[nH]c3ncc(-c4ccc(N5CCN(C(=O)CN6CCC(c7ccc(C8CCC(=O)NC8=O)cc7F)CC6)CC5)nc4)cc23)c1F` (centres unmarked) [Example 15, N-[3-[5-[6-[4-[2-[4-[4-(2,6-dioxo-3-piperidyl)-2-fluoro-phenyl]-1-piperidyl]acetyl]piperazin-1-yl]-3-pyridyl]-1H-pyrrolo[2,3-b]pyridine-3-carbonyl]-2,4-difluoro-phenyl]propane-2-sulfonamide], half-maximal degradation (DC50) was put at 9.59 nM and the maximum response (Emax) worked out at 2.65%.

In the case of `CCN(C)S(=O)(=O)Nc1ccc(F)c(C(=O)c2c[nH]c3ncc(-c4cnc(N5CCN(C(=O)CN6CCC(c7ccc(NC8CCC(=O)NC8=O)cc7)CC6)CC5)nc4)cc23)c1F` (centres unmarked) [Example 18, 5-[2-[4-[2-[4-[4-[(2,6-dioxo-3-piperidyl)amino]phenyl]-1-piperidyl]acetyl]piperazin-1-yl]pyrimidin-5-yl]-3-[3-[[ethyl(methyl)sulfamoyl]amino]-2,6-difluoro-benzoyl]-1H-pyrrolo[2,3-b]pyridine], it took 2.85 nM to reach half-maximal degradation (DC50) and the “HiBit 24 h Emax” value stood at 7.93%.

Take `CCN(C)S(=O)(=O)Nc1ccc(F)c(C(=O)c2c[nH]c3ncc(-c4cnc(N5CCN(C(=O)CN6CCN(c7ccc(NC8CCC(=O)NC8=O)cc7)CC6)CC5)nc4)cc23)c1F` (centres unmarked) [Example 19, 5-[2-[4-[2-[4-[4-[(2,6-dioxo-3-piperidyl)amino]phenyl]piperazin-1-yl]acetyl]piperazin-1-yl]pyrimidin-5-yl]-3-[3-[[ethyl(methyl)sulfamoyl]amino]-2,6-difluoro-benzoyl]-1H-pyrrolo[2,3-b]pyridine]: the DC50 was determined as 8.57 nM and the “HiBit 24 h Emax” value was 11.26%.

Turning to `CCN(C)S(=O)(=O)Nc1ccc(F)c(C(=O)c2c[nH]c3ncc(-c4cnc(N5CCN(C(=O)CN6CCC(c7ccc(NC8CCC(=O)NC8=O)cn7)CC6)CC5)nc4)cc23)c1F` (centres unmarked) [Example 21, 5-[2-[4-[2-[4-[5-[(2,6-dioxo-3-piperidyl)amino]-2-pyridyl]-1-piperidyl]acetyl]piperazin-1-yl]pyrimidin-5-yl]-3-[3-[[ethyl(methyl)sulfamoyl]amino]-2,6-difluoro-benzoyl]-1H-pyrrolo[2,3-b]pyridine], the half-maximal degradation concentration (DC50) is 7.1 nM and the maximal response (Emax) stood at 11.9%.

For `CCN(C)S(=O)(=O)Nc1ccc(F)c(C(=O)c2c[nH]c3ncc(-c4cnc(N5CCN(C(=O)CN6CCC(c7ccc(N(C)C8CCC(=O)NC8=O)cc7)CC6)CC5)nc4)cc23)c1F` (centres unmarked) [Example 22, 5-[2-[4-[2-[4-[4-[(2,6-dioxo-3-piperidyl)-methyl-amino]phenyl]-1-piperidyl]acetyl]piperazin-1-yl]pyrimidin-5-yl]-3-[3-[[ethyl(methyl)sulfamoyl]amino]-2,6-difluoro-benzoyl]-1H-pyrrolo[2,3-b]pyridine], the DC50 was determined as 19.4 nM and the “HiBit 24 h Emax” value is 18.02%.

Turning to `CCN(C)S(=O)(=O)Nc1ccc(F)c(C(=O)c2c[nH]c3ncc(-c4cnc(N5CCN(C(=O)CN6CCC(c7ccc(N8CCC(=O)NC8=O)cc7)CC6)CC5)nc4)cc23)c1F` [Example 24, 5-[2-[4-[2-[4-[4-(2,4-dioxohexahydropyrimidin-1-yl)phenyl]-1-piperidyl]acetyl]piperazin-1-yl]pyrimidin-5-yl]-3-[3-[[ethyl(methyl)sulfamoyl]amino]-2,6-difluoro-benzoyl]-1H-pyrrolo[2,3-b]pyridine], it took 5.59 nM to reach half-maximal degradation (DC50) and the “HiBit 24 h Emax” value amounted to 7.88%.
